Results on 28 molecules are retold here after patent publication US10633375B2, “Oxopicolinamide derivative, preparation method therefor and pharmaceutical use thereof” (Jiangsu Hengrui Medicine Co., Ltd., priority 2016, dated 2020).

Sequence of Coagulation Factor XIa protease (P03951 388-625): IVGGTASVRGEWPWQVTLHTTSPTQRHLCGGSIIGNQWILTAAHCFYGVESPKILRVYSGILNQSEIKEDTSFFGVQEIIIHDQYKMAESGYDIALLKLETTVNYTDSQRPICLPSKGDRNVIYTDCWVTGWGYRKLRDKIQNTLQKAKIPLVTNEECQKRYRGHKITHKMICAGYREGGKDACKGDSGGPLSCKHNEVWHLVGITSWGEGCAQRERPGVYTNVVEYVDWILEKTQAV
Sequence of Coagulation Factor XIa protease (P03951 19-387 partner): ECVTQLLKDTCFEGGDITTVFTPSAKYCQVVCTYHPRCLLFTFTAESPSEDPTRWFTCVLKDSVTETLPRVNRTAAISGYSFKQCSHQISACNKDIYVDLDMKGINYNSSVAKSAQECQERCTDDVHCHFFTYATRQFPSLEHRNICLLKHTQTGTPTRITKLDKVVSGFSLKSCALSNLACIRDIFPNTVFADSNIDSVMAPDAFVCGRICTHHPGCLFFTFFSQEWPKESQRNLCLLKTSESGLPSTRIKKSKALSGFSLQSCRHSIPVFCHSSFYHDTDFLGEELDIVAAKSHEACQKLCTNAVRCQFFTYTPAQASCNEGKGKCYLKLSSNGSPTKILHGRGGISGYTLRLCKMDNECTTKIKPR

The target of the assay is Coagulation Factor XIa protease (Homo sapiens (Human), UniProt P03951). Put plainly: Inhibition of Factor XIa detected by absorption photometry. It counts as biochemical. To be noted: absorbance at 405 nm, 10 minutes at 37° C. How it is done:
Test Example 1: Biological Activity of the Compounds of the Present Invention on
The Inhibition of Factor XIa Detected by Absorption Photometry
1. Experimental Materials
Enzyme: Coagulation Factor XIa protease (Abcam, Art. No ab62411)
Substrate: Coagulation Factor XIa specific substrate (HYPHEN1310 med, Art. No. Biophen cs-21(66))
2. Experimental Procedure
20 mM of test compound dissolved in 100% DMSO was diluted to 200, 20, 2, 0.2, 0.02, 0.002 μM with 100% DMSO; 1 μl of the compound was added to each well in a 384-well plate, blank and control wells were replaced with DMSO. The plate was centrifuged to remove the compound to the bottom. 10 μl (2.5 μg/ml) of FXIa enzyme solution was added to each well, and 10 μl of buffer was added to the blank well. The plate was centrifuged to remove the enzyme solution to the bottom.
Finally, 10 μl of 2 mM substrate were added to each well, and the plate was centrifuged to remove the substrate solution to the bottom.
The plate was incubated for 10 minutes at 37° C.; and then the absorbance was measured at 405 nm.
As a reminder, the IC50 is the concentration that inhibits the measured activity by half. Regarding `COc1cn(C(Cc2ccsc2)C(=O)Nc2ccc(C(=O)O)cc2)c(=O)cc1-c1cc(Cl)ccc1C(C)=O` (stereo not shown) [Example 7, 4-(2-(4-(2-acetyl-5-chlorophenyl)-5-methoxy-2-oxopyridin-1 (2H)-yl)-3-(thiophen-3-yl)propanamido)benzoic acid], the IC50 came out at 34 nM. Regarding `COC(=O)Nc1ccc(NC(=O)[C@H](Cc2ccccc2)n2cc(OC)c(-c3cc(Cl)ccc3C(C)=O)cc2=O)cc1` [Example 12, methyl (S)-(4-(2-(4-(2-acetyl-5-chlorophenyl)-5-methoxy-2-oxopyridin-1(2H)-yl)-3-phenylpropanamido)phenyl)carbamate], the IC50 is 42 nM. For `COc1cn(C(Cc2ccc(NC(=O)C3CC3)cc2)C(=O)Nc2ccc(C(=O)O)cc2)c(=O)cc1-c1cc(Cl)ccc1C(C)=O` (stereo not shown) [Example 16, 4-(2-(4-(2-acetyl-5-chlorophenyl)-5-methoxy-2-oxopyridin-1(2H)-yl)-3-(4-(cyclopropanecarboxamido)phenyl)propanamido)benzoic acid] the value was 100 nM; for `COc1cn(C(Cc2ccccc2)C(=O)Nc2ccc3nn(C)cc3c2)c(=O)cc1-c1cc(Cl)ccc1C(C)=O` (stereo not shown) [Example 18, 2-(4-(2-acetyl-5-chlorophenyl)-5-methoxy-2-oxopyridin-1(2H)-yl)-N-(2-methyl-2H-indazol-5-yl)-3-phenylpropanamide], 56 nM; for `COc1cn([C@H](Cc2ccccc2)C(=O)Nc2ccc3nn(C)cc3c2)c(=O)cc1-c1cc(Cl)ccc1C(C)=O` [Example 19, (R)-2-(4-(2-acetyl-5-chlorophenyl)-5-methoxy-2-oxopyridin-1(2H)-yl)-N-(2-methyl-2H-indazol-5-yl)-3-phenylpropanamide], 5690 nM.

For `CCCC(=O)c1ccc(Cl)cc1-c1cc(=O)n(C(Cc2ccccc2)C(=O)Nc2ccc(C(=O)O)cc2)cc1OC` (stereo not shown) [Example 21, 4-(2-(4-(2-butyryl-5-chlorophenyl)-5-methoxy-2-oxopyridin-1 (2H)-yl)-3-phenylpropan amido)benzoic acid], inhibition was half-maximal at 36 nM (IC50). The value for `CCC(=O)c1ccc(Cl)cc1-c1cc(=O)n(C(Cc2ccccc2)C(=O)Nc2ccc3ncncc3c2)cc1OC` (stereo not shown) [Example 23, 2-(4-(5-chloro-2-propionylphenyl)-5-methoxy-2-oxopyridin-1(2H)-yl)-3-phenyl-N-(quinazolin-6-yl)propanamide] was 24 nM. `CCC(=O)c1ccc(Cl)cc1-c1cc(=O)n(C(Cc2ccccc2)C(=O)Nc2ccc(C(N)=O)cc2)cc1OC` (stereo not shown) [Example 24, 4-(2-(4-(5-chloro-2-propionylphenyl)-5-methoxy-2-oxopyridin-1(2H)-yl)-3-phenylpropanamido)benzamide] came in with an IC50 of 36 nM. `CCC(=O)c1ccc(Cl)cc1-c1cc(=O)n([C@H](Cc2ccccc2)C(=O)Nc2ccc(C(N)=O)cc2)cc1OC` [Example 25, (R)-4-(2-(4-(5-chloro-2-propionylphenyl)-5-methoxy-2-oxopyridin-1(2H)-yl)-3-phenylpropanamido)benzamide] showed a half-inhibitory concentration (IC50) of 1520 nM. For `CCC(=O)c1ccc(Cl)cc1-c1cc(=O)n([C@@H](Cc2ccccc2)C(=O)Nc2ccc(C(N)=O)cc2)cc1OC` [Example 26, (S)-4-(2-(4-(5-chloro-2-propionylphenyl)-5-methoxy-2-oxopyridin-1(2H)-yl)-3-phenylpropanamido)benzamide] the value was 21 nM. The value for `CCC(=O)c1ccc(Cl)cc1-c1cc(=O)n(C(Cc2ccccc2)C(=O)Nc2ccc3cn[nH]c3c2)cc1OC` (stereo not shown) [Example 27, 2-(4-(5-chloro-2-propionylphenyl)-5-methoxy-2-oxopyridin-1(2H)-yl)-N-(1H-indazol-6-yl)-3-phenylpropanamide] was 66 nM. As to `CCC(=O)c1ccc(Cl)cc1-c1cc(=O)n(C(Cc2ccccc2)C(=O)Nc2ccc3[nH]cnc3c2)cc1OC` (stereo not shown) [Example 38, N-(1H-benzo[d]imidazol-5-yl)-2-(4-(5-chloro-2-propionylphenyl)-5-methoxy-2-oxopyridin-1(2H)-yl)-3-phenylpropanamide], 30 nM corresponded to half-maximal inhibition (IC50). For `COc1cn(C(Cc2ccccc2)C(=O)Nc2ccc3ncncc3c2)c(=O)cc1-c1cc(Cl)ccc1C(C)=O` (stereo not shown) [Example 40, 2-(4-(2-acetyl-5-chlorophenyl)-5-methoxy-2-oxopyridin-1(2H)-yl)-3-phenyl-N-(quinazolin-6-yl)propanamide] the value was 38 nM; for `COc1cn(C(Cc2ccccc2)C(=O)Nc2ccc(C(=O)O)cc2)c(=O)cc1-c1cc(Cl)ccc1C(=O)C1CC1` (stereo not shown) [Example 41, 4-(2-(4-(5-chloro-2-(cyclopropanecarbonyl)phenyl)-5-methoxy-2-oxopyridin-1(2H)-yl)-3-phenylpropanamido)benzoic acid], 39 nM.

In turn, `COc1cn(C(Cc2ccccc2)C(=O)Nc2ccc3cn[nH]c3c2)c(=O)cc1-c1cc(Cl)ccc1C(C)=O` (stereo not shown) [Example 42, 2-(4-(2-acetyl-5-chlorophenyl)-5-methoxy-2-oxopyridin-1 (2H)-yl)-N-(1H-indazol-6-yl)-3-phenylpropanamide] yielded an IC50 of 40 nM. For `COc1cn([C@@H](Cc2ccccc2)C(=O)Nc2ccc(C(=O)NC3CC3)cc2)c(=O)cc1-c1cc(Cl)ccc1C(C)=O` [Example 43, (S)-4-(2-(4-(2-acetyl-5-chlorophenyl)-5-methoxy-2-oxopyridin-1 (2H)-yl)-3-phenylpropanamido)-N-cyclopropylbenzamide] the value was 47 nM. Regarding `COc1cn(C(Cc2ccccc2)C(=O)Nc2ccc3nccnc3c2)c(=O)cc1-c1cc(Cl)ccc1C(C)=O` (stereo not shown) [Example 45, 2-(4-(2-acetyl-5-chlorophenyl)-5-methoxy-2-oxopyridin-1(2H)-yl)-3-phenyl-N-(quinoxalin-6-yl)propanamide], the IC50 came out at 69 nM. In the case of `COc1cn(C(Cc2ccccc2)C(=O)Nc2ccc3cnccc3c2)c(=O)cc1-c1cc(Cl)ccc1C(C)=O` (stereo not shown) [Example 46, 2-(4-(2-acetyl-5-chlorophenyl)-5-methoxy-2-oxopyridin-1 (2H)-yl)-N-(isoquinolin-6-yl)-3-phenylpropanamide], the IC50 stood at 71 nM.

In turn, `COc1cn(C(Cc2ccccc2)C(=O)Nc2ccc3[nH]cnc3c2)c(=O)cc1-c1cc(Cl)ccc1C(C)=O` (stereo not shown) [Example 47, 2-(4-(2-acetyl-5-chlorophenyl)-5-methoxy-2-oxopyridin-1 (2H)-yl)-N-(1H-benzo[d]imidazol-5-yl)-3-phenylpropanamide] displayed an IC50 of 82 nM.

Molecule `COc1cn(C(Cc2ccc(F)cc2)C(=O)Nc2ccc(C(=O)O)cc2)c(=O)cc1-c1cc(Cl)ccc1C(C)=O` (stereo not shown) [Example 63, 4-(2-(4-(2-acetyl-5-chlorophenyl)-5-methoxy-2-oxopyridin-1(2H)-yl)-3-(4-fluorophenyl)propanamido)benzoic acid] registered an IC50 of 55 nM. The value for `COc1cn(C(Cc2ccccc2Br)C(=O)Nc2ccc(C(=O)O)cc2)c(=O)cc1-c1cc(Cl)ccc1C(C)=O` (stereo not shown) [Example 64, 4-(2-(4-(2-acetyl-5-chlorophenyl)-5-methoxy-2-oxopyridin-1 (2H)-yl)-3-(2-bromophenyl)propanamido)benzoic acid] was 58 nM; that for `COc1cn(C(Cc2ccc(F)cc2F)C(=O)Nc2ccc(C(=O)O)cc2)c(=O)cc1-c1cc(Cl)ccc1C(C)=O` (stereo not shown) [Example 65, 4-(2-(4-(2-acetyl-5-chlorophenyl)-5-methoxy-2-oxopyridin-1(2H)-yl)-3-(2,4-difluorophenyl)propanamido)benzoic acid] was 43 nM; that for `COc1cn(C(Cc2ccccc2C)C(=O)Nc2ccc(C(=O)O)cc2)c(=O)cc1-c1cc(Cl)ccc1C(C)=O` (stereo not shown) [Example 66, 4-(2-(4-(2-acetyl-5-chlorophenyl)-5-methoxy-2-oxopyridin-1(2H)-yl)-3-(o-tolyl)propan amido)benzoic acid] was 34 nM. For `COc1cn(C(Cc2cccc(C)c2)C(=O)Nc2ccc(C(=O)O)cc2)c(=O)cc1-c1cc(Cl)ccc1C(C)=O` (stereo not shown) [Example 67, 4-(2-(4-(2-acetyl-5-chlorophenyl)-5-methoxy-2-oxopyridin-1(2H)-yl)-3-(m-tolyl)propan amido)benzoic acid] the value was 35 nM; for `COc1cn(C(Cc2ccccc2F)C(=O)Nc2ccc(C(=O)O)cc2)c(=O)cc1-c1cc(Cl)ccc1C(C)=O` (stereo not shown) [Example 68, 4-(2-(4-(2-acetyl-5-chlorophenyl)-5-methoxy-2-oxopyridin-1(2H)-yl)-3-(2-fluorophenyl)propanamido)benzoic acid], 47 nM; for `COc1cn(C(Cc2ccc(Cl)cc2)C(=O)Nc2ccc(C(=O)O)cc2)c(=O)cc1-c1cc(Cl)ccc1C(C)=O` (stereo not shown) [Example 69, 4-(2-(4-(2-acetyl-5-chlorophenyl)-5-methoxy-2-oxopyridin-1 (2H)-yl)-3-(4-chlorophenyl)propanamido)benzoic acid], 49 nM. On to `COc1cn(C(Cc2ccccc2Cl)C(=O)Nc2ccc(C(=O)O)cc2)c(=O)cc1-c1cc(Cl)ccc1C(C)=O` (stereo not shown) [Example 70, 4-(2-(4-(2-acetyl-5-chlorophenyl)-5-methoxy-2-oxopyridin-1 (2H)-yl)-3-(2-chlorophenyl)propanamido)benzoic acid], for which the IC50 was 54 nM. The value for `COc1cn(C(Cc2ccc(C)cc2)C(=O)Nc2ccc(C(=O)O)cc2)c(=O)cc1-c1cc(Cl)ccc1C(C)=O` (stereo not shown) [Example 74, 4-(2-(4-(2-acetyl-5-chlorophenyl)-5-methoxy-2-oxopyridin-1(2H)-yl)-3-(p-tolyl)propanamido)benzoic acid] was 100 nM.
